Experimental findings from patent US20250025443A1, “COMPOUNDS AND METHODS FOR TREATING CORONA VIRUSES” (CLEAR CREEK BIO, INC., priority 2021, published 2025) are described below.

The first assay has as its target SARS-CoV-2 Papain-Like Protease (PLpro) (Severe acute respiratory syndrome coronavirus 2 (2019-nCoV) (SARS-CoV-2), UniProt P0DTD1). Briefly: biochemical. The note with it: PLpro enzymatic fluorescence assay; class symbols; read-out: PLpro IC50.
On to `Cc1ccc(OC[C@@H]2CCN2C)cc1C(=O)NC1(c2cc(-c3ccnn3C)cc3ncccc23)CC1` [Compound 578, (S)-2-Methyl-N-(1-(7-(1-methyl-1H-pyrazol-5-yl)quinolin-5-yl)cyclopropyl)-5-((1-methylazetidin-2-yl)methoxy)benzamide], for which the IC50 was below 100 nM. `Cc1ccc(OC[C@@H]2CCN2C)cc1C(=O)NC1(c2cc(OC(F)(F)F)cc3ncccc23)CC1` [Compound 579, (S)-2-Methyl-5-((1-methylazetidin-2-yl)methoxy)-N-(1-(7-(trifluoromethoxy)quinolin-5-yl)cyclopropyl)benzamide]: the IC50 was below 100 nM. `Cc1ccc(OC[C@@H]2CCN2C)cc1C(=O)NC1(c2cc(-c3ccn(C)n3)cc3ncccc23)CC1` [Compound 582, (S)-2-Methyl-N-(1-(7-(1-methyl-1H-pyrazol-3-yl)quinolin-5-yl)cyclopropyl)-5-((1-methylazetidin-2-yl)methoxy)benzamide]: the 50% inhibitory concentration (IC50) is below 100 nM. On the same count and under the same terms, then `Cc1ccc(OC[C@@H]2CCN2C)cc1C(=O)NC1(c2cc(-c3nccs3)cc3ncccc23)CC1` [Compound 590, (S)-2-Methyl-5-((1-methylazetidin-2-yl)methoxy)-N-(1-(7-(thiazol-2-yl)quinolin-5-yl)cyclopropyl)benzamide], with below 100 nM. Regarding `COCCOc1cc(C2(NC(=O)c3cc(OC[C@@H]4CCN4C)ccc3C)CC2)c2cccnc2c1` [Compound 591, (S)-N-(1-(7-(2-Methoxyethoxy)quinolin-5-yl)cyclopropyl)-2-methyl-5-((1-methylazetidin-2-yl)methoxy)benzamide], the IC50 was below 100 nM. As to `Cc1ccc(OC[C@@H]2CCN2C)cc1C(=O)NC1(c2cc(Oc3ccccc3)cc3ncccc23)CC1` [Compound 592, (S)-2-Methyl-5-((1-methylazetidin-2-yl)methoxy)-N-(1-(7-phenoxyquinolin-5-yl)cyclopropyl)benzamide], the IC50 is below 100 nM.

With `COc1cc(C(C)N2CCC(C(=O)NCc3cccc(F)c3)CC2)c2cccnc2c1` (stereo not drawn) [Compound 593, N-(3-Fluorobenzyl)-1-(1-(7-methoxyquinolin-5-yl)ethyl)piperidine-4-carboxamide], the IC50 lay within 1000 to 5000 nM. The same measure, in the same setting: next, `Cc1ccc(OC[C@@H]2CCN2C)cc1C(=O)NC1(c2cc(-c3ccccc3)cc3ncccc23)CC1` [Compound 594, (S)-2-Methyl-5-((1-methylazetidin-2-yl)methoxy)-N-(1-(7-phenylquinolin-5-yl)cyclopropyl)benzamide]: below 100 nM; `COc1cc(C2(NC(=O)c3cc(OC[C@@]45CCCN4C[C@H](F)C5)ccc3C)CC2)c2cccnc2c1` [Compound 596, 5-(((2R,7aS)-2-Fluorohexahydro-1H-pyrrolizin-7a-yl)methoxy)-N-(1-(7-methoxyquinolin-5-yl)cyclopropyl)-2-methylbenzamide]: below 100 nM; `CC(c1cc(-c2cccs2)cc2ccccc12)N1CCC(C(=O)NCc2cccc(F)c2)CC1` (stereo not drawn) [Compound 599, N-(3-Fluorobenzyl)-1-(1-(3-(thiophen-2-yl)naphthalen-1-yl)ethyl)piperidine-4-carboxamide]: 1000 to 5000 nM. With `CC(C)=Cc1cc(C2(NC(=O)c3cc(OC[C@@H]4CCN4C)ccc3C)CC2)c2cccnc2c1` [Compound 603, (S)-2-Methyl-5-((1-methylazetidin-2-yl)methoxy)-N-(1-(7-(2-methylprop-1-en-1-yl)quinolin-5-yl)cyclopropyl)benzamide], the IC50 was below 100 nM. As to `Cc1ccc(OC[C@@H]2CCN2)cc1C(=O)NC1(c2cc(-c3cccs3)cc3ncccc23)CC1` [Compound 608, (S)-5-(Azetidin-2-ylmethoxy)-2-methyl-N-(1-(7-(thiophen-2-yl)quinolin-5-yl)cyclopropyl)benzamide], the IC50 was below 100 nM. Consider `Cc1ccc(OC[C@@H]2CCN2C)cc1C(=O)NC1(c2cc(C3=CCCC3)cc3ncccc23)CC1` [Compound 609, (S)-N-(1-(7-(Cyclopent-1-en-1-yl)quinolin-5-yl)cyclopropyl)-2-methyl-5-((1-methylazetidin-2-yl)methoxy)benzamide], for which the IC50 is below 100 nM. Still for that read-out and setting: next, `C=Cc1cc(C2(NC(=O)c3cc(OC[C@@H]4CCN4)ccc3C)CC2)c2cccnc2c1` [Compound 612, (S)-5-(Azetidin-2-ylmethoxy)-2-methyl-N-(1-(7-vinylquinolin-5-yl)cyclopropyl)benzamide]: below 100 nM. Consider `C=C(C)c1cc(C2(NC(=O)c3cc(OC[C@@H]4CCN4)ccc3C)CC2)c2cccnc2c1` [Compound 613, (S)-5-(Azetidin-2-ylmethoxy)-2-methyl-N-(1-(7-(prop-1-en-2-yl)quinolin-5-yl)cyclopropyl)benzamide], for which the IC50 is below 100 nM.

With `C=Cc1cc(C2(NC(=O)c3cc(OCCNC)ccc3C)CC2)c2cccnc2c1` [Compound 615, 2-Methyl-5-(2-(methylamino)ethoxy)-N-(1-(7-vinylquinolin-5-yl)cyclopropyl)benzamide], the IC50 is below 100 nM. For the molecule `C=C(C)c1cc(C2(NC(=O)c3cc(OCCNC)ccc3C)CC2)c2cccnc2c1` [Compound 616, 2-Methyl-5-(2-(methylamino)ethoxy)-N-(1-(7-(prop-1-en-2-yl)quinolin-5-yl)cyclopropyl)benzamide], the half-inhibitory concentration (IC50) is below 100 nM. In the case of `COc1cc(C2(NC(=O)c3cc(OC[C@@H]4CCN4C)ccc3C)CC2)c2ccc(Cl)nc2c1` [Compound 617, (S)-N-(1-(2-Chloro-7-methoxyquinolin-5-yl)cyclopropyl)-2-methyl-5-((1-methylazetidin-2-yl)methoxy)benzamide], the IC50 is below 100 nM. `Cc1ccc(OC[C@@H]2CCN2C)cc1C(=O)NC1(c2cc(-n3cccn3)cc3ncccc23)CC1` [Compound 619, (S)-N-(1-(7-(1H-Pyrazol-1-yl)quinolin-5-yl)cyclopropyl)-2-methyl-5-((1-methylazetidin-2-yl)methoxy)benzamide]: the IC50 is below 100 nM. For the molecule `C#Cc1cc(C2(NC(=O)c3cc(OC[C@@H]4CCN4C)ccc3C)CC2)c2cccnc2c1` [Compound 620, (S)-N-(1-(7-Ethynylquinolin-5-yl)cyclopropyl)-2-methyl-5-((1-methylazetidin-2-yl)methoxy)benzamide], the IC50 is below 100 nM.

For `Cc1ccc(OC[C@@H]2CCN2C)cc1C(=O)NC1(c2cc(-c3cc4ccccc4s3)cc3ncccc23)CC1` [Compound 621, (S)-N-(1-(7-(Benzo[b]thiophen-2-yl)quinolin-5-yl)cyclopropyl)-2-methyl-5-((1-methylazetidin-2-yl)methoxy)benzamide], the IC50 is below 100 nM. Consider `Cc1ccc(OC[C@@H]2CCN2C)cc1C(=O)NC1(c2cc(-c3ccc(Cl)s3)cc3ncccc23)CC1` [Compound 623, (S)-N-(1-(7-(5-Chlorothiophen-2-yl)quinolin-5-yl)cyclopropyl)-2-methyl-5-((1-methylazetidin-2-yl)methoxy)benzamide], for which the IC50 was below 100 nM. For the molecule `COc1cc(C2(NC(=O)c3cc(OC[C@@H]4CCN4C)ccc3C)CC2)c2ccc(C)nc2c1` [Compound 625, (S)-N-(1-(7-Methoxy-2-methylquinolin-5-yl)cyclopropyl)-2-methyl-5-((1-methylazetidin-2-yl)methoxy)benzamide], the IC50 was below 100 nM.

Still in this assay, the particulars now being: SARS-CoV-2 PLpro enzymatic fluorescence assay; read-out: PLpro IC50.
As to `Cc1ccc(OCCN(C)C)cc1NC(=O)C1(c2cccc3ccccc23)CC1` [Compound 580, N-(5-(2-(Dimethylamino)ethoxy)-2-methylphenyl)-1-(naphthalen-1-yl)cyclopropane-1-carboxamide], the IC50 is above 5000 nM. For `Cc1cc(C2(NC(=O)c3cc(OC[C@@H]4CCN4C)ccc3C)CC2)c2cccnc2c1` [Compound 581, (S)-2-Methyl-5-((1-methylazetidin-2-yl)methoxy)-N-(1-(7-methylquinolin-5-yl)cyclopropyl)benzamide], the IC50 was below 100 nM. Consider `COc1cc(C2(NC(=O)c3cc(Oc4ccncc4)ccc3C)CC2)c2cccnc2c1` [Compound 584, N-(1-(7-Methoxyquinolin-5-yl)cyclopropyl)-2-methyl-5-(pyridin-4-yloxy)benzamide], for which the IC50 lay within 100 to 1000 nM. Still for that read-out and setting: then `Cc1ccc(OC[C@@H]2CCN2C)cc1C(=O)NC1(c2cc(Cl)nc3cc(F)ccc23)CC1` [Compound 586, (S)-N-(1-(2-Chloro-7-fluoroquinolin-4-yl)cyclopropyl)-2-methyl-5-((1-methylazetidin-2-yl)methoxy)benzamide], with below 100 nM; and `Cc1ccc(OC[C@@H]2CCN2C)cc1C(=O)NC1(c2cc(OC(C)C)cc3ncccc23)CC1` [Compound 587, (S)-N-(1-(7-Isopropoxyquinolin-5-yl)cyclopropyl)-2-methyl-5-((1-methylazetidin-2-yl)methoxy)benzamide], with below 100 nM; and `COc1cc(C2(NC(=O)c3cc(OC[C@@H]4CCN4C)c(N)cc3C)CC2)c2cccnc2c1` [Compound 597, (S)-4-Amino-N-(1-(7-methoxyquinolin-5-yl)cyclopropyl)-2-methyl-5-((1-methylazetidin-2-yl)methoxy)benzamide], with below 100 nM. As to `Cc1ccc(OC[C@@H]2CCN2C)cc1C(=O)NC1(c2cc(OCc3ccccc3)cc3ncccc23)CC1` [Compound 598, (S)-N-(1-(7-(Benzyloxy)quinolin-5-yl)cyclopropyl)-2-methyl-5-((1-methylazetidin-2-yl)methoxy)benzamide], the 50% inhibitory concentration (IC50) was below 100 nM. In the case of `Cc1ccc(OC[C@@H]2CCN2C)cc1C(=O)NC1(c2cc(C(F)(F)F)cc3ncccc23)CC1` [Compound 600, (S)-2-Methyl-5-((1-methylazetidin-2-yl)methoxy)-N-(1-(7-(trifluoromethyl)quinolin-5-yl)cyclopropyl)benzamide], the IC50 was below 100 nM. Turning to `Cc1ccc(OC[C@@H]2CCN2C)cc1C(=O)NC1(c2cc(N(C)C)nc3cc(F)ccc23)CC1` [Compound 611, (S)-N-(1-(2-(Dimethylamino)-7-fluoroquinolin-4-yl)cyclopropyl)-2-methyl-5-((1-methylazetidin-2-yl)methoxy)benzamide], the IC50 is below 100 nM.

`Cc1ccc(OC[C@@H]2CCN2C)cc1C(=O)NC1(c2cc(Cl)cc3ncccc23)CC1` [Compound 624, (S)-N-(1-(7-Chloroquinolin-5-yl)cyclopropyl)-2-methyl-5-((1-methylazetidin-2-yl)methoxy)benzamide]: the IC50 was below 100 nM.
